# Experimental data from article PMC9048745, “Physicochemical investigation of a novel curcumin diethyl γ-aminobutyrate, a carbamate ester prodrug of curcumin with enhanced anti-neuroinflammatory activity” (PLoS ONE, 2022).
# Where two headings read alike, the source gives them in different places.
# How the values were obtained:
# [1] = system: NO production in LPS-stimulated BV-2 microglial cells; assay: Nitric oxide assay (Griess reagent); type: cell-based, murine; conditions: 10 μM, 12 h pre-incubation, then 1 μg/mL LPS 24 h; compared with curcumin
# Procedure: (§1) BV-2 microglial cells were plated in a 24-well plate at a density of 2 × 10^5 per well for 24 h. The cells were pre-incubated for 12 h with curcumin (10 μM), CUR-2GE (10 μM), medium (DMEM), or a vehicle (0.5% DMSO). The cells were then induced with 1 μg/mL LPS for 24 h. The culture medium samples were collected and analyzed for nitric oxide (NO) and cytokines (TNF- and IL-6) using NO and enzyme-linked immunoassay (ELISA) assays, respectively.
# Nitric oxide (NO) production was determined by measuring nitrite, the NO metabolite, using Griess reagent. Briefly, the culture medium (100 μL) was added with 1% sulfanilamide (50 μL) and incubated for 5 min. Then, a solution of 0.1% N-(1-naphthyl)ethylenediamine dihydrochloride (50 μL) was added and incubated for 5 min. The absorbance was measured at 520 nm using the microplate reader, and the nitrite concentration was calculated against a calibration curve using NaNO₂ as a standard.
# [2] = system: IL-6 release in LPS-stimulated BV-2 microglial cells; assay: IL-6 ELISA; type: cell-based, murine; conditions: 10 μM, 12 h pre-incubation, then 1 μg/mL LPS 24 h; compared with curcumin
# Procedure: as §1
# (§2) Quantification of TNF-α and IL-6 was performed using commercially available ELISA kits according to the manufacturer’s protocol (BioLegend, San Diego, CA, USA). The absorbance was measured at 450 nm using the microplate reader, and the amount of TNF-α and IL-6 was determined against their corresponding standard curves of TNF-α and IL-6.
# [3] = Solubility in water, buffer pH 4.5 and ethanol (UPLC); type: physicochemical; conditions: for solubility at 1 h: thermodynamic from solid
# Procedure: An excess amount of CUR-2GE (2 mg) was added to 2 mL of three solvents, water, phosphate buffer pH 4.5 and ethanol. The samples were sonicated at 25°C for 1 h and then placed on an orbital shaker at 100 rpm at 25°C for 1 h. The obtained mixture was then centrifuged at 25°C at 14,000 rpm for 10 min [37, 38]. The supernatant was analyzed using UPLC and the solubility of CUR-2GE in each medium was determined. Experiments were performed in triplicate. The solubility category was classified according to USP [39]. The percentage of CUR-2GE in the undissociated form at various pH values was calculated based on the Henderson-Hasselbalch equation [40] (see S1 Appendix).
# S1 Appendix. Experimental procedures
# The solubility category was classified according to USP [1] as very soluble (>1000 mg/mL), freely soluble (100-1000 mg/mL), soluble (33-100 mg/mL), sparingly soluble (10-33 mg/mL), slightly soluble (1-10 mg/mL), very slightly soluble (0.1-1 mg/mL) and practically […]
# The percentage of CUR-2GE in the undissociated form at various pH values were calculated based on Henderson-Hasselbalch using Eq. 1:
# %Undissociated form = 100 - antilog (pH-pKa) x 100 (1)
# Where pH; pH value of the medium for solubilization, pKa; negative logarithm of the dissociation constant (Ka) of CUR-2GE with computed using the Marvin (Product version: 21.8.0) of ChemAxon (Budapest, Hungary) (http://www.chemaxon.com) accessed on June 2021. […]
# [4] = Release study in human plasma at 37°C; type: in vitro ADME
# Procedure: The amount of curcumin released from CUR-2GE in human plasma was determined at 37°C at various time points. A stock solution of CUR-2GE (100 μg/mL) in the diluent was prepared and diluted with pre-incubated human plasma at 37°C for 5 min to obtain the final concentration of 5 μg/mL. The mixture was incubated at 37°C for 5, 10, 20, 30 and 60 min and each aliquot (300 μL) was added with 300 μL of acetonitrile to stop the reaction and further centrifugated at 4°C at 14,000 rpm for 30 min. The concentration of CUR-2GE in the supernatant was analyzed using UPLC [19, 26]. Experiments were carried out in triplicates. The initial time point (0 min) was prepared by adding 300 μL acetonitrile to the pre-incubated human plasma. The percent peak area of CUR-2GE and its hydrolytic products was plotted against incubation time. The k and t1/2 values were determined using the linear pseudo-first-order model.
# [5] = system: TNF-α release in LPS-stimulated BV-2 microglial cells; assay: TNF-α ELISA; type: cell-based, murine; conditions: 10 μM, 12 h pre-incubation, then 1 μg/mL LPS 24 h; compared with curcumin
# Procedure: as §1, §2
# BV-2 microglial cells = assay: In vitro cellular uptake (fluorescence microscopy); type: cell-based, murine; conditions: BV-2 cells, 4-h incubation, 20 μM and 100 μM, compared with curcumin
# Procedure: BV-2 microglial cells were plated in a 96-well plate (Costar, NY, USA) at a density of 10,000 cells/well for 24 h. The cells were incubated in DMEM media without phenol red for 4 h in the presence of curcumin and CUR-2GE at concentrations of 20 μM and 100 μM. Then, the sample was washed with PBS and the fluorescence intensity was measured using a fluorescence microscope (Olympus IX51 inverted microscope, Tokyo, Japan).
# [6] = 25°C, <LOQ refers to less than 0.05 μg/mL
smiles,measurement,setting,value
"CCOC(=O)CCCNC(=O)Oc1ccc(/C=C/C(=O)/C=C(O)/C=C/c2ccc(OC(=O)NCCCC(=O)OCC)c(OC)c2)cc1OC [CUR-2GE, Curcumin diethyl γ-aminobutyrate]",inhibition of NO production,[1],to a greater extent than curcumin
same,inhibition of IL-6 release,[2],to a greater extent than curcumin
same,"Solubility, buffer pH 4.5",[3]; [6],<LOQ
same,"Solubility, water",[3]; [6],<LOQ
same,solubility at 1 h,"[3]; ethanol, organic solvent or mixture, 25°C, read-out: Solubility, ethanol",17.9 ± 1.76 µg/mL
same,USP solubility classification,"[3]; in water, buffer pH 4.5 and ethanol, practically insoluble = <0.1 mg/mL",practically insoluble
same,solubility at 1 h,"[3]; phosphate buffer pH 4.5, pH 4.5, aqueous buffer, 25°C, <LOQ refers to less than 0.05 μg/mL, read-out: Solubility, buffer pH 4.5",< 0.05 µg/mL
same,solubility at 1 h,"[3]; water, 25°C, <LOQ refers to less than 0.05 μg/mL, read-out: Solubility, water",< 0.05 µg/mL
same,rate in human plasma lower than that in buffer pH 7.4,[4],approximately 8.7 fold
same,"k, pseudo-first-order hydrolysis",[4]; human plasma,1.76 ± 0.30 h⁻¹
same,time for sequential conversion to CUR-1GE and curcumin in plasma,[4]; human plasma,≤ 1 h
same,half-life at 5 μg/mL,"[4]; human plasma, read-out: t1/2, hydrolysis (converted)",24 ± 4.8 min
same,inhibition of TNF-α release,[5],to a greater extent than curcumin
same,cellular uptake (fluorescence intensity),BV-2 microglial cells,higher fluorescence intensity than curcumin
